Measurements as given in patent publication US10392368B2, “Pyrazolo and triazolo bicyclic compounds as JAK kinase inhibitors” (THERAVANCE BIOPHARMA R&D IP, LLC, priority 2017, dated 2019).
Like-named read-outs stand apart in the source and are kept apart here.

Columns and labels:
JAK1 = target: T1, JAK1 (Homo sapiens, UniProt P23458); experiment: Biochemical JAK1 kinase assay (LanthaScreen); settings: for Ki: read-out: JAK 1 (pKi) (converted)
T1 construct: GST; purchased Life Technologies
Summary of the method: (§1)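 Values are pKi, calculated by Cheng-Prusoff from IC50 obtained by robust 4-parameter fitting of percent inhibition. The kinase reaction used GFP-STAT1 peptide in HEPES pH 7.5 buffer with MgCl2, EGTA and Brij-35, ATP-initiated after compound pre-incubation, 1 h at ambient temperature.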

JAK2 = target: T2, JAK2 (Homo sapiens, UniProt O60674); experiment: Biochemical JAK2 kinase assay (LanthaScreen); settings: for Ki: read-out: JAK 2 (pKi) (converted)
T2 construct: GST; purchased Life Technologies
T2 sequence (O60674 whole entry): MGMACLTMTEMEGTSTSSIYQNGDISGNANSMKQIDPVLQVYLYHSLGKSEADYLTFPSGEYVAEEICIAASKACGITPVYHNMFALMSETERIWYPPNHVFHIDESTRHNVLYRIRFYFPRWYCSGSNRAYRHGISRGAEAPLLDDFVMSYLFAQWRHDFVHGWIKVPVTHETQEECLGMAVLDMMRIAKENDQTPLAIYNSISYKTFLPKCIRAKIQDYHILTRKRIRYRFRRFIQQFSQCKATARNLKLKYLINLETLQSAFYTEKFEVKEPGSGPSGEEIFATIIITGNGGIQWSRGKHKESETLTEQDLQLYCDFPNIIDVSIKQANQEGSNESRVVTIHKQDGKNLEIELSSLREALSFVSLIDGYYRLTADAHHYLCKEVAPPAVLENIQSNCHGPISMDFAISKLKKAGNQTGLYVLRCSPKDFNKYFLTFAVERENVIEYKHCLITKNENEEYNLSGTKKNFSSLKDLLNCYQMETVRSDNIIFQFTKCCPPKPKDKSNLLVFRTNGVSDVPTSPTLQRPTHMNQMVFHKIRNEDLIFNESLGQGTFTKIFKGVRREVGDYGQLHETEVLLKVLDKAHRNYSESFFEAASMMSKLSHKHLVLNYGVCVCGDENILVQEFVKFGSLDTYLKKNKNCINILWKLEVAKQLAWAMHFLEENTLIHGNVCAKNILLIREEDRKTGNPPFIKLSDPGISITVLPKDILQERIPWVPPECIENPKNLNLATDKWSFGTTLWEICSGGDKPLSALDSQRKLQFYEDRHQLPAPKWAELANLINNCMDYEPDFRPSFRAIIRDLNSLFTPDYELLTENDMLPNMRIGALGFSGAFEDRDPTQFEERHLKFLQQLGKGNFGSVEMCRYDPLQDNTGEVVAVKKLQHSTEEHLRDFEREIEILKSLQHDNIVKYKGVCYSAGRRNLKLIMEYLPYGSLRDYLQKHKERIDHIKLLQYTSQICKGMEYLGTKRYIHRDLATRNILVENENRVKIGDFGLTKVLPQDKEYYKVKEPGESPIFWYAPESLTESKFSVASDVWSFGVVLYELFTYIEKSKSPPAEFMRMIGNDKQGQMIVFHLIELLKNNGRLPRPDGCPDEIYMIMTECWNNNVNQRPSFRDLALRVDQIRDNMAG
Summary of the method: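 GST-tagged recombinant JAK2 pre-incubated 1 h at ambient temperature with compound and GFP-STAT1 peptide in HEPES pH 7.5/MgCl2 buffer, then ATP added for a 1 h reaction with 1% DMSO. TR-FRET read after EDTA and Tb-anti-pSTAT1 (pTyr701) addition; IC50 from 4-parameter fit, converted to pKi by Cheng-Prusoff.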

Tyk2 = target: T3, Tyk2 (Homo sapiens, UniProt P29597); experiment: Biochemical Tyk2 kinase assay (LanthaScreen); settings: for Ki: read-out: Tyk 2 (pKi) (converted)
T3 construct: GST; purchased Life Technologies
T3 sequence (P29597 whole entry): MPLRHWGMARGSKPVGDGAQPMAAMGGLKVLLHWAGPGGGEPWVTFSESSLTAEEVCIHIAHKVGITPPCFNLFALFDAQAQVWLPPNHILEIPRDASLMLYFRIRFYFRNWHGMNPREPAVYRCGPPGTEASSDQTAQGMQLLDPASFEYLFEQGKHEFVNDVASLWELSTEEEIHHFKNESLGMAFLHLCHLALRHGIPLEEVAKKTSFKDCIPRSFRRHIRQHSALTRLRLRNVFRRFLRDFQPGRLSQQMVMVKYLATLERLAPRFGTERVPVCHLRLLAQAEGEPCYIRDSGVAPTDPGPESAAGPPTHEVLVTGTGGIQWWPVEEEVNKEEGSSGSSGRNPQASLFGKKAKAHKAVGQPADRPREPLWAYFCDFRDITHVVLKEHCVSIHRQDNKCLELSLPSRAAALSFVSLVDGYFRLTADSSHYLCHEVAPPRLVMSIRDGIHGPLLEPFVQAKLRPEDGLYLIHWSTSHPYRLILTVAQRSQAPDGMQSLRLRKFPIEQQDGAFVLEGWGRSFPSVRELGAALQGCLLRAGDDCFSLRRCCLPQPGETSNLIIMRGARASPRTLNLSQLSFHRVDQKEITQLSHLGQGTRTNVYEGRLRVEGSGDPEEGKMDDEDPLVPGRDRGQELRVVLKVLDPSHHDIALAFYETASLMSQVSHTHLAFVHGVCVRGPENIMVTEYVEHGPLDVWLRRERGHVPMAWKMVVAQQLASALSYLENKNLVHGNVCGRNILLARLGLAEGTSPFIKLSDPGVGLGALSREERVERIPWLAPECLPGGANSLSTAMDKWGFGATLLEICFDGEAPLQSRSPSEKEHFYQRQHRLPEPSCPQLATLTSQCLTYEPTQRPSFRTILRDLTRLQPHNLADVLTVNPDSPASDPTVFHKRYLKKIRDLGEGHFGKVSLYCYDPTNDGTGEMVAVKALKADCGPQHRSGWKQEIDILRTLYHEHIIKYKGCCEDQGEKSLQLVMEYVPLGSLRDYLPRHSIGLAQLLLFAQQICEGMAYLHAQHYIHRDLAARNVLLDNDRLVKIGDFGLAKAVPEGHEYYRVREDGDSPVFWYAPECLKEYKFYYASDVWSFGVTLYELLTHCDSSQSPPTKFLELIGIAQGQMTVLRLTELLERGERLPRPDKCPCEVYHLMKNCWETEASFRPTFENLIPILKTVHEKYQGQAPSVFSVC
Summary of the method: as §1

[1] = system: IL-2 stimulated pSTAT5 in Tall-1 T cells; experiment: Cellular JAK3 potency assay: inhibition of IL-2 stimulated pSTAT5 in Tall-1 T cells; type: cell-based, human; settings: for IC50: Homo sapiens, read-out: Tall-1 (pIC50) (converted)
Summary of the method: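 In human Tall-1 T cells, IL-2 (300 ng/ml final, 30 min) drives STAT5 phosphorylation after a 1 h compound pretreatment. Lysates are assayed for pSTAT5 by AlphaLisa, and IC50 derived from signal versus concentration is expressed as pIC50.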

JAK3 = target: T4, JAK3 (Homo sapiens, UniProt P52333); experiment: Biochemical JAK3 kinase assay (LanthaScreen); set-up: GST; purchased Life Technologies; settings: for Ki: read-out: JAK 3 (pKi) (converted)
T4 sequence (P52333 1-1124): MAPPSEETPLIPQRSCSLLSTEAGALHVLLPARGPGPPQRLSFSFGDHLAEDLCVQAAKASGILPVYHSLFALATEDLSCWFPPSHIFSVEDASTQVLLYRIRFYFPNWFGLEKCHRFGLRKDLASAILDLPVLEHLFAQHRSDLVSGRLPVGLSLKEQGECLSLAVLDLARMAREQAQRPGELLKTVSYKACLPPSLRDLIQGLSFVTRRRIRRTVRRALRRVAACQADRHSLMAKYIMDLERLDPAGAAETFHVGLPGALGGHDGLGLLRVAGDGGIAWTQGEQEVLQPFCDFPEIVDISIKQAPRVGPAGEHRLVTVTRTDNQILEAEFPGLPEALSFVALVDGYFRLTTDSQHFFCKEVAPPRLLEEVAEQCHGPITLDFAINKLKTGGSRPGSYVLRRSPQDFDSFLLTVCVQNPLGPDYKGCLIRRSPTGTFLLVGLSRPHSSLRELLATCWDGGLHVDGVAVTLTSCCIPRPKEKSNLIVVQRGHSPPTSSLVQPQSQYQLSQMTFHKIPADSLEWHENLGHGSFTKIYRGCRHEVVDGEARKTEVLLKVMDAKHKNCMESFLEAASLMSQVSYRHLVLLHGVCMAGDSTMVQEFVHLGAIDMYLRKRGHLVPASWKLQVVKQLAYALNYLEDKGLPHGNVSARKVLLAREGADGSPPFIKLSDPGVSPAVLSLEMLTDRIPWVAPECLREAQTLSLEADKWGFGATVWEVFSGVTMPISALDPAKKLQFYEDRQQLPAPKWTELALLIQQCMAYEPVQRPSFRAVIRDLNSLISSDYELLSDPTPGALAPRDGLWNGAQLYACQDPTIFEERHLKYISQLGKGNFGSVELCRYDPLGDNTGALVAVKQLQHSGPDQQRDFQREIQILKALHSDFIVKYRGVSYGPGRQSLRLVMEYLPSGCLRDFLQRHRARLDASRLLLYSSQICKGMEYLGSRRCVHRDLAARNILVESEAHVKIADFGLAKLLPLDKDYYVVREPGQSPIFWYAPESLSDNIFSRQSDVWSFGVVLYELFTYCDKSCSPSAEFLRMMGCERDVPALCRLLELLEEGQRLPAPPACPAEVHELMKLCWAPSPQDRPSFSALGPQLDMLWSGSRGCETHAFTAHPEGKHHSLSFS
Summary of the method: as §1

[2] = IL-2 stimulated pSTAT5, Tall-1 T cells
[3] = selectivity JAK3 over JAK1, difference of pKi
[4] = TALL-1, IL-2 stimulated pSTAT5 in Tall-1 T cells
[5] = selectivity: difference of pKi JAK3 and pKi JAK1
[6] = TALL-1, IL-2 stimulated pSTAT5, Tall-1 T cells
[7] = IL-2 stimulated pSTAT5 in Tall-1 T cells

T1 sequence (P23458 whole entry): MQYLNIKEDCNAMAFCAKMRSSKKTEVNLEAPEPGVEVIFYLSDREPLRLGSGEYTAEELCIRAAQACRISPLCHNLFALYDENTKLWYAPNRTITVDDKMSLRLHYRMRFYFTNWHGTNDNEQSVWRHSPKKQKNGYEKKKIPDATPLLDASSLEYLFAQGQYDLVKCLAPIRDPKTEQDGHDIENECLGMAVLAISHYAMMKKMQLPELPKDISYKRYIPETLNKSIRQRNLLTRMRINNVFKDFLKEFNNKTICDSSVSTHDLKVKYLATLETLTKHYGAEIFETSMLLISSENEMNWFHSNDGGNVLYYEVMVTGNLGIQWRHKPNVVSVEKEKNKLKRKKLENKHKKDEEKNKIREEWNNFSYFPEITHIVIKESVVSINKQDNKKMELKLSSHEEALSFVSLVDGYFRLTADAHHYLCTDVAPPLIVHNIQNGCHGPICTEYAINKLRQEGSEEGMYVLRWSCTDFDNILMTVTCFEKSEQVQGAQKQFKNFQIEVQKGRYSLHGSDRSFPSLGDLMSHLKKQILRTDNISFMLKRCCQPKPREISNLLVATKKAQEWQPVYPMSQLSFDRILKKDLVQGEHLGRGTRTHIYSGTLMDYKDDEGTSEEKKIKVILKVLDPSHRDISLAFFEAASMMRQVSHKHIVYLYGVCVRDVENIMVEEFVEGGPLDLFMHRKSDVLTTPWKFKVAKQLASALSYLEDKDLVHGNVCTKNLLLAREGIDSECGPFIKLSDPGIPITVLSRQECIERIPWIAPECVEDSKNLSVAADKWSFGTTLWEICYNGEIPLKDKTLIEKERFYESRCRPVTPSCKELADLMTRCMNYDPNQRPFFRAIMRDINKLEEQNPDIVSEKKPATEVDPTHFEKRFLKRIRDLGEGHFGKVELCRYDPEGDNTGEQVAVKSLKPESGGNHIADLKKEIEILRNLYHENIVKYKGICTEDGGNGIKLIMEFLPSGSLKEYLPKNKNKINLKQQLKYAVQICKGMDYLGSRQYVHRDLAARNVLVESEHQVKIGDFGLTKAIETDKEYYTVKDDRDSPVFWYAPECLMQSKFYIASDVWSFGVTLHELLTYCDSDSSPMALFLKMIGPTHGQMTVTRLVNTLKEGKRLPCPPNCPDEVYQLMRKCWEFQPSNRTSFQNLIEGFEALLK

Row | Compound | JAK 1 (pKi) (JAK1) | JAK 2 (pKi) (JAK2) | Tyk 2 (pKi) (Tyk2) | Tall-1 (pIC50) [1, 2] | JAK 3 (pKi) (JAK3) | JAK3 (pKi)-JAK1 (pKi) (JAK3; [3]) | Ki (JAK1) [nM] | Ki (JAK2) [nM] | Ki (Tyk2) [nM] | IC50 [1, 4] [nM] | Ki (JAK3) [nM] | JAK3 (pKi)-JAK1 (pKi) (JAK3; [5]) | IC50 [1, 6] [nM] | Tall-1 (pIC50) [1, 7]
1 | C=CC(=O)N1CCC(COc2cc(-c3ccc(O)c(Cl)c3)cc3[nH]ncc23)CC1 [Compound 14-1] | E (a pKi value of 7 or below (Ki of 100 nM or above)) | E (a pKi value of 7 or below (Ki of 100 nM or above)) | E (a pKi value of 7 or below (Ki of 100 nM or above)) | A (a pIC50 value≥7.5 (IC50≤32 nM)) | B (a pKi value between 9 and 10 (Ki between 1 nM and 0.1 nM)) | A (a value of 3 or above) | – | – | – | – | – | – | – | –
2 | CN(C)C/C=C\C(=O)N1CC(COc2cc(-c3ccc(O)c(Cl)c3)cc3[nH]ncc23)C1 [Compound 3-122] | – | – | – | – | – | – | > 100 | 10 to 100 | > 100 | < 31.6 | < 0.1 | A (a value of 3 or above) | – | –
3 | CN(C)C/C=C/C(=O)N1CC(OCc2cc(-c3ccc(O)c(F)c3)cc3[nH]ncc23)C1 [Compound 16-7] | E (a pKi value of 7 or below (Ki of 100 nM or above)) | E (a pKi value of 7 or below (Ki of 100 nM or above)) | E (a pKi value of 7 or below (Ki of 100 nM or above)) | B (a pIC50 value between 6.7 (included) and 7.5 (IC50 between 200 nM and 32 nM)) | A (a pKi value≥10 (Ki≤0.1 nM)) | A (a value of 3 or above) | – | – | – | – | – | – | – | –
4 | C=CC(=O)N1CC[C@H](Oc2cc(-c3ccc(O)c(F)c3)cc3[nH]ncc23)C1 [Compound 1-5] | – | – | – | – | – | – | > 100 | 10 to 100 | > 100 | < 31.6 | < 0.1 | A (a value of 3 or above) | – | –
5 | C=CC(=O)N1CCOC[C@H]1C(=O)Nc1cc(-c2ccc(O)cc2)cc2[nH]ncc12 [Compound 12-63] | – | – | – | – | – | A (a value of 3 or above) | > 100 | > 100 | > 100 | – | 0.1 to 1 | – | 31.6 to 200 | –
6 | C=CC(=O)N1CC(F)(COc2nc(-c3ccc(O)c(F)c3)cc3[nH]ncc23)C1 [Compound 3-49] | – | – | – | – | – | – | > 100 | 10 to 100 | > 100 | < 31.6 | 0.1 to 1 | B (a value of 2.3 to 3) | – | –
7 | CN(C)C/C=C/C(=O)N1CC(C#N)(COc2nc(-c3ccc(O)c(F)c3)cc3[nH]ncc23)C1 [Compound 3-106] | E (a pKi value of 7 or below (Ki of 100 nM or above)) | E (a pKi value of 7 or below (Ki of 100 nM or above)) | E (a pKi value of 7 or below (Ki of 100 nM or above)) | – | B (a pKi value between 9 and 10 (Ki between 1 nM and 0.1 nM)) | – | – | – | – | – | – | A (a value of 3 or above) | – | B (a pIC50 value between 6.7 (included) and 7.5 (IC50 between 200 nM and 32 nM))
8 | CN(C)C/C=C/C(=O)N1CC(Oc2cc(-c3ccc(O)c(Cl)c3)cc3[nH]ncc23)(C(F)F)C1 [Compound 5-16] | E (a pKi value of 7 or below (Ki of 100 nM or above)) | 6 | E (a pKi value of 7 or below (Ki of 100 nM or above)) | – | A (a pKi value≥10 (Ki≤0.1 nM)) | – | – | – | – | – | – | A (a value of 3 or above) | – | A (a pIC50 value≥7.5 (IC50≤32 nM))
9 | CN(C)C/C=C/C(=O)N1CCSC[C@@H]1C(=O)Nc1cc(-c2ccc(O)cc2)cc2[nH]ncc12 [Compound 12-65] | – | – | – | – | – | A (a value of 3 or above) | > 100 | > 100 | > 100 | – | 0.1 to 1 | – | 200 to 1000 | –
10 | C=CC(=O)N1CCSC[C@H]1C(=O)Nc1cc(-c2ccc(O)cc2)cc2[nH]ncc12 [Compound 12-64] | – | – | – | – | – | A (a value of 3 or above) | > 100 | > 100 | > 100 | – | < 0.1 | – | < 31.6 | –
11 | C=CC(=O)N1CCC(Oc2nc(-c3ccc(O)c(F)c3)cc3[nH]ncc23)CC1 [Compound 6-16] | – | – | – | – | – | A (a value of 3 or above) | > 100 | 10 to 100 | > 100 | – | 0.1 to 1 | – | 31.6 to 200 | –
12 | Cc1cc(-c2cc(OCC3CN(C(=O)/C=C/CN(C)C)C3)c3cn[nH]c3c2)ccc1O [Compound 18-8] | E (a pKi value of 7 or below (Ki of 100 nM or above)) | E (a pKi value of 7 or below (Ki of 100 nM or above)) | E (a pKi value of 7 or below (Ki of 100 nM or above)) | B (a pIC50 value between 6.7 (included) and 7.5 (IC50 between 200 nM and 32 nM)) | B (a pKi value between 9 and 10 (Ki between 1 nM and 0.1 nM)) | A (a value of 3 or above) | – | – | – | – | – | – | – | –
13 | C=CC(=O)N1CCC(COc2nc(-c3ccc(O)cc3)nc3[nH]ncc23)CC1 [Compound 14-12] | E (a pKi value of 7 or below (Ki of 100 nM or above)) | E (a pKi value of 7 or below (Ki of 100 nM or above)) | E (a pKi value of 7 or below (Ki of 100 nM or above)) | C (a pIC50 value between 6 and 6.7 (IC50 between 1 μM and 200 nM)) | B (a pKi value between 9 and 10 (Ki between 1 nM and 0.1 nM)) | A (a value of 3 or above) | – | – | – | – | – | – | – | –
14 | C=CC(=O)N1C2CCC1CC(Nc1cc(-c3ccc(O)cc3)cc3[nH]ncc13)C2 (stereo not drawn) [Compound 10-7] | E (a pKi value of 7 or below (Ki of 100 nM or above)) | D (a pKi value between 7 and 8 (Ki between 100 nM and 10 nM)) | E (a pKi value of 7 or below (Ki of 100 nM or above)) | B (a pIC50 value between 6.7 (included) and 7.5 (IC50 between 200 nM and 32 nM)) | B (a pKi value between 9 and 10 (Ki between 1 nM and 0.1 nM)) | A (a value of 3 or above) | – | – | – | – | – | – | – | –
